Assay results taken from patent US20240043410A1, “SULPHAMOYL UREA DERIVATIVES CONTAINING ALKYL-OXACYCLOALKYL MOIETY AND USES THEREOF” (NodThera Limited, priority 2020, published 2024).
In brackets after ≈: the same amount, converted by molar mass. Counter-ions that a name gives are not always drawn.

What was measured:
[1] = test system: IL-1β release upon NLRP3 activation in peripheral blood mononuclear cells (PBMC); assay: PBMC IC50 Determination Assay; format: cell-based; conditions: Homo sapiens; LPS-primed PBMC stimulated with ATP (5 mM) or nigericin (10 μM); IL-1β by ELISA (Protocol A) or HTRF (Protocol B); salts tested
Experimental: PBMC IC50 Determination Assay. The compounds of the present disclosure were tested for their inhibitory activity against IL-1β release upon NLRP3 activation in peripheral blood mononuclear cells (PBMC).
Protocol A. PBMC were isolated from buffy coats by density gradient centrifugation on Histopaque-1077 (Sigma, cat no. 10771). Isolated cells were seeded into the wells of a 96-well plate and incubated for 3 h with lipopolysaccharide (LPS). Following medium exchange, the compounds of the present disclosure were added (a single compound per well) and the cells were incubated for 30 min. Next, the cells were stimulated either with ATP (5 mM) or nigericin (10 μM) for 1 h and the cell culture media from the wells were collected for further analysis. The release of IL1-β into the media was determined by a quantitative detection of IL-1β in the media using an IL-1β enzyme-linked immunosorbent assay (ELISA) Ready-SET-Go!, eBioscience cat. No. 88-7261-88. Briefly, in a first step, high affinity binding plates (Corning, Costar 9018 or NUNC Maxisorp Cat No. 44-2404) were coated overnight at 4° C. with specific capture antibody included in the kit (anti-human IL-1β ref. 14-7018-68). Subsequently, plates were blocked with blocking buffer for 1 h at room temperature (rt) and after washing with a buffer (PBS with 0.05% Tween-20) incubated with protein standard and culture media. After 2 h of incubation at rt, plates were washed and incubated with biotinylated detection antibody included in the kit (anti-human IL-1β Biotin ref. 33-7110-68) for 1 h at rt. Plates were washed and incubated with HRP-streptavidin for 30 min at rt and washed again. The signal was developed after addition of 3,3′,5,5′-tetramethylbenzidine-peroxidase (TMB) until colour appeared and the reaction was stopped by 2 M H2SO4. A microplate spectrophotometer (BioTek) was used to detect signals with 450 nm. The detection range of IL-1β 3 ELISA was 2-150 ng/mL.
Protocol B. PBMC were isolated from buffy coats by density gradient centrifugation on Histopaque-1077 (Sigma, cat no. 10771). Isolated cells were seeded into the wells (280,000 cells/well) of a 96-well plate and incubated for 3 h with lipopolysaccharide (LPS, 1 μg/mL diluted 1000× from a 1 mg/mL stock solution). The compounds of the present disclosure were added (a single compound per well) and the cells were incubated for 30 min. Next, the cells were stimulated with ATP (5 mM final concentration diluted 20× from a 100 mM stock solution) for 1 h and the cell culture media from the wells were collected for further analysis. The release of IL-1β into the media was determined by quantitative detection of IL-1 in the media using HTRF®, CisBio cat. No. 62HIL1BPEH. Briefly, cell culture supernatant were dispensed directly into the assay plate containing antibodies labelled with the HTRF® donor and acceptor. A microplate spectrophotometer (BMG) was used to detect signals at 655 nm and 620 nm. The detection range of IL-1β HTRF® was […].

PAMPA permeability assay = format: in vitro ADME; conditions: 10 μM donor, PBS, 4 hours at room temperature, lecithin/dodecane membrane
Experimental: PAMPA Studies. The compounds of the present disclosure were tested in a PAMPA permeability assay to assess passive transcellular permeation.
Protocol. 0.2 mM working solution was prepared by diluting 10 mM stock solution with DMSO. 10 μM donor solution (5% DMSO) was prepared by diluting 20 μL of working solution with 380 μL PBS. 150 μL of 10 μM donor solutions to each well of the donor plate, whose PVDF membrane was precoated with 5 μL of 1% lecithin/dodecane mixture. Duplicates were prepared. 300 μL of PBS was added to each well of the PTFE acceptor plate. The donor plate and acceptor plate were combined and incubated for 4 hours at room temperature with shaking at 300 rpm. Preparation of TO sample: 20 μL donor solution was transferred to new well followed by the addition of 250 μL PBS (DF: 13.5), 130 μL ACN (containing internal standard) as TO sample. Preparation of acceptor sample: The plate was removed from incubator. 270 μL solution was transferred from each acceptor well and mixed with 130 μL ACN (containing internal standard) as acceptor sample. Preparation of donor sample: 20 μL solution was transferred from each donor well and mixed with 250 μL PBS (DF: 13.5), 130 μL ACN (containing internal standard) as donor sample. Acceptor samples and donor samples were all analysed by LC-MS/MS.
The measured PAMPA permeability values of compounds of the present disclosure are shown in Table B below (“$$$$” means >10 nm/“$$$” means ≥3 and <10 nm/s; “$$” means ≥1 and <3 nm/s; “$” means <1 nm/s).

[2] = test system: P-glycoprotein (P-gp) or breast cancer resistance protein (BCRP); assay: BCRP and P-gp Caco-2 permeability assay; format: in vitro ADME; conditions: efflux ratio, Caco-2 cells
Experimental: BCRP and P-gp Caco-2 Studies. The compounds of the present disclosure were tested in a Caco-2 permeability assay to assess whether they are actively transported out of cells by the efflux proteins, P-glycoprotein (P-gp) or breast cancer resistance protein (BCRP).
Caco-2 cells were used between passage numbers 40-60. Cells were seeded onto Millipore Multiscreen Transwell plates at […]. The cells were cultured in DMEM and media was changed every two or three days. On Day 18-22 the BCRP inhibition study was performed. Cell culture and assay incubations were carried out at 37° C. in an atmosphere of 5% CO2 with a relative humidity of 95%. On the day of the assay, the monolayers were prepared by rinsing both apical and basolateral surfaces twice with warmed (37° C.) transport buffer (Hanks Balanced Salt Solution [HBSS] containing 25 mM HEPES and 4.45 mM glucose, pH 7.4). Cells were then incubated with transport buffer containing test compound or positive control inhibitor (novobiocin) in both apical and basolateral compartments for 30 minutes at 37° C. For the inhibition studies a P-gp inhibitor or BCRP inhibitor was included on both sides of the monolayer for the equilibration period. The dosing solutions were prepared by diluting estrone 3-sulfate and test compound where applicable to give a final estrone 3-sulfate concentration of 1 μM (final DMSO concentration of 1% v/v). The fluorescent integrity marker lucifer yellow was prepared in receiver solutions in vehicle or test compound-containing transport buffer. After pre-incubation, the transport buffer was removed from both apical and basolateral compartments and replaced with the appropriate dosing or receiver solution. For assessment of B-A permeability, transport buffer was removed from the basolateral companion plate and replaced with dosing solution. Fresh transport buffer containing lucifer yellow and test compound where applicable (final DMSO concentration 1% v/v) was added to the apical compartment insert, which was then placed into the companion plate. After a 90-minute incubation the apical compartment inserts and the companion plates were separated and compartments sampled for analysis. Seven concentrations of compound (up to 100 μM) were assessed in addition to a vehicle control (0 μM). A triplicate determination of each concentration was performed. The positive control inhibitor was evaluated in parallel. [^3H]-estrone 3-sulfate was quantified by liquid scintillation counting to give disintegrations per minute (dpm). The integrity of the monolayer throughout the experiment was checked by monitoring lucifer yellow permeation using fluorimetric analysis. Corrected B-A apparent permeability (Papp) of probe substrate was calculated by subtracting its mean passive Papp determined in the presence of the highest concentration of positive control inhibitor (giving 100% transporter inhibition). The mean corrected B-A Papp from vehicle wells (0 μM test compound) was defined as 100% transport activity and this value was then used to calculate the percentage control transport activity for all other test compound concentrations. Percentage control transport activity was plotted against test compound concentration and fitted to calculate an IC50 value.
The efflux ratio (ER) values of compounds of the present disclosure are shown in Table B below (“****” means <3; “***” 3≥ and <10; “**” means ≥10 and <30; “*” means ≥30).

[3] = Thermodynamic (equilibrium) solubility assay; format: physicochemical; conditions: aqueous buffer, thermodynamic from solid; 50 mM pH 7.4 phosphate buffer, 24 hours at room temperature
Experimental: Thermodynamic Solubility Studies. The compounds of the present disclosure were tested in an equilibrium solubility assay.
An appropriate amount of test and control compounds were weighed into lower chambers of Whatman Mini-UniPrep vials. To these were added 50 mM pH 7.4 phosphate buffer (450 μL) to get a super-saturated suspension. The samples were vortexed for at least 2 minutes. The Whatman Mini-UniPrep vials were shaken on a shaker for 24 hours at room temperature at 800 rpm. The vials were centrifuged for 20 minutes (eg. 4000 rpm). Samples were compressed to prepare filtrates for injection into HPLC system and the concentration calculated with a standard curve. […] As shown in the table, compounds of the present disclosure may display improved properties (e.g., over the compounds in the prior art), such as enhanced potency, solubility, membrane permeability and transporter efflux.

`Cn1cc(N(C[C@@H]2C[C@H](O)CO2)S(=O)(=O)NC(=O)Nc2c3c(cc4c2CCC4)CCC3)cn1` (relative stereo) [Compound 2A, Sodium ((1,2,3,5,6,7-hexahydro-s-indacen-4-yl)carbamoyl)(N-((cis-4-hydroxy-tetrahydrofuran-2-yl)methyl)-N-(1-methyl-1H-pyrazol-4-yl)sulfamoyl)amide] showed an IC50 [1] of under 0.1 µM.

For `Cn1cc(N(C[C@@H]2CCCO2)S(=O)(=O)NC(=O)Nc2c3c(cc4c2CCC4)CCC3)cn1` [Compound 1A, Sodium [(1,2,3,5,6,7-hexahydro-s-indacen-4-yl)carbamoyl][(1-methyl-1H-pyrazol-4-yl)({[(2S)-oxolan-2-yl]methyl})sulfamoyl]azanide], the “PAMPA Pe” value (PAMPA permeability assay) was “$$ (“$$” means ≥1 and <3 nm/s)”, the “Caco-2 ER” value [2] was “**** (“****” means <3)” and the IC50 [1] was under 0.1 µM. It also gave a solubility thermodynamic at 24 h [3] of 3 to 10 mg/mL.

For `Cn1cc(N(C[C@H]2CCCO2)S(=O)(=O)NC(=O)Nc2c3c(cc4c2CCC4)CCC3)cn1` [Compound 1B, Sodium [(1,2,3,5,6,7-hexahydro-s-indacen-4-yl)carbamoyl][(1-methyl-1H-pyrazol-4-yl)({[(2R)-oxolan-2-yl]methyl})sulfamoyl]azanide], the “PAMPA Pe” value (PAMPA permeability assay) was “$$ (“$$” means ≥1 and <3 nm/s)”, the “Caco-2 ER” value [2] was “**** (“****” means <3)” and the IC50 [1] was under 0.1 µM. For the same compound, the solubility thermodynamic at 24 h [3] was 1 to 3 mg/mL.

With `Cn1cc(N(CC2CCCO2)S(=O)(=O)NC(=O)Nc2c3c(cc4c2CCC4)CCC3)cn1` (stereo not drawn) [Compound 1] the IC50 [1] was under 0.1 µM.

With `Cn1cc(N(C[C@H]2C[C@H](O)CO2)S(=O)(=O)NC(=O)Nc2c3c(cc4c2CCC4)CCC3)cn1` [Compound 2B, 1-(1,2,3,5,6,7-Hexahydro-s-indacen-4-yl)-3-[[(2R,4S)-4-hydroxytetrahydro-furan-2-yl]methyl-(1-methylpyrazol-4-yl)sulfamoyl]urea, sodium salt] the IC50 [1] was 0.1 to 1 µM.

For `Cn1cc(N(CC2CCOC2)S(=O)(=O)NC(=O)Nc2c3c(cc4c2CCC4)CCC3)cn1` (stereo not drawn) [Compound 4], the “PAMPA Pe” value (PAMPA permeability assay) was “$ (“$” means <1 nm/s)”, the “Caco-2 ER” value [2] was “** (“**” means ≥10 and <30)” and the IC50 [1] was 0.1 to 1 µM. The solubility thermodynamic at 24 h [3] was 1 to 3 mg/mL (≈ 2.18 to 6.53 mM).

For `Cn1cc(N(CCC2CCCO2)S(=O)(=O)NC(=O)Nc2c3c(cc4c2CCC4)CCC3)cn1` (stereo not drawn) [Compound 5, Sodium [(1,2,3,5,6,7-hexahydro-s-indacen-4-yl)carbamoyl][(1-methyl-1H-pyrazol-4-yl)[2-(oxolan-2-yl)ethyl]sulfamoyl]azanide], the “PAMPA Pe” value (PAMPA permeability assay) was “$$ (“$$” means ≥1 and <3 nm/s)”, the “Caco-2 ER” value [2] was “*** (“***” 3≥ and <10)” and the IC50 [1] was 0.1 to 1 µM. The solubility thermodynamic at 24 h [3] was 3 to 10 mg/mL.

For `Cn1cc(N(CC2CCCCO2)S(=O)(=O)NC(=O)Nc2c3c(cc4c2CCC4)CCC3)cn1` (stereo not drawn) [Compound 6, Sodium [(1,2,3,5,6,7-hexahydro-s-indacen-4-yl)carbamoyl][(1-methyl-1H-pyrazol-4-yl)[(oxan-2-yl)methyl]sulfamoyl]azanide], the “PAMPA Pe” value (PAMPA permeability assay) was “$$$$ (“$$$$” means >10 nm/)”, the “Caco-2 ER” value [2] was “**** (“****” means <3)” and the IC50 [1] was under 0.1 µM. The solubility thermodynamic at 24 h [3] was 3 to 10 mg/mL.

Work on `O=C(Nc1c2c(cc3c1CCC3)CCC2)NS(=O)(=O)N(C[C@@H]1CCCO1)c1cn[nH]c1` [Compound 8A, 1-(1,2,3,5,6,7-hexahydro-s-indacen-4-yl)-3-[1H-pyrazol-4-yl-[[(2S)-tetrahydrofuran-2-yl]methyl]sulfamoyl]urea] yielded an IC50 [1] of under 0.1 µM.
